Paper PMC11276905 (International Journal of Molecular Sciences, 2024)
Entries after “also recorded” stand apart in the source; their conditions may differ. Read-outs that look alike come from different tables or passages of the source.

Legend:
[1] = biological target: T1, isolated HNE (Homo sapiens, UniProt P08246); experiment: Formation and dissociation of the HNE/inhibitor complex (pre-steady-state kinetics); format: biochemical
T1 construct: immediately processed to its active form in the trans-Golgi before being targeted to azurophil granules; purchased Merck (Darmstadt, Germany) 324681
T1 sequence (P08246 30-267): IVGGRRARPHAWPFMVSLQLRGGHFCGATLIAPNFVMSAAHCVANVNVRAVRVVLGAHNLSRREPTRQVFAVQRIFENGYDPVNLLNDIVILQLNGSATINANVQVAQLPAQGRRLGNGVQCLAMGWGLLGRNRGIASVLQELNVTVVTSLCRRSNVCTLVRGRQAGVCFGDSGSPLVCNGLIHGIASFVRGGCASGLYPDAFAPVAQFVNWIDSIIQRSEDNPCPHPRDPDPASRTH
Protocol: To determine the association rates (kon) of the inhibitors, the enzymatic activity of HNE (0.6 nM) was recorded continuously in an SFM25 fluorometer (Biotek Kontron, Neufahrn, Germany) by following the cleavage of MeOSuc-AAPV-AMC (10 µM) at 37 °C. When a constant rate was established (i.e., after 1–5 min), an inhibitor was added, and the reaction followed for up to 60 min. The pseudo-first-order rate constant kobs was obtained by fitting the observed presteady-state progress curve to the integrated equation of Morrison with pro-Fit. Apparent second-order rate constants were subsequently calculated as k2/Ki = kobs/It by linear regression from several independent experiments using a range of concentrations. For reversible inhibitors, the dissociation rate koff was subsequentially calculated as koff = Ki × kon; for irreversible inhibitors, koff is ≈ zero. Finally, the halftime of the HNE/inhibitor complex formation and dissociation were calculated as t1/2,on = 0.693/(kass × It + koff) and t1/2,off = 0.693/koff, respectively.

[2] = biological target: T2, HNE in mature PMN (Homo sapiens, UniProt P08246); experiment: Intracellular HNE inhibition in freshly isolated mature PMN; conditions: for potency in PMN compared with U937 cells (in words): PMN 1 h vs U937 0-3 h
T2 sequence (P08246 30-247 limits assumed): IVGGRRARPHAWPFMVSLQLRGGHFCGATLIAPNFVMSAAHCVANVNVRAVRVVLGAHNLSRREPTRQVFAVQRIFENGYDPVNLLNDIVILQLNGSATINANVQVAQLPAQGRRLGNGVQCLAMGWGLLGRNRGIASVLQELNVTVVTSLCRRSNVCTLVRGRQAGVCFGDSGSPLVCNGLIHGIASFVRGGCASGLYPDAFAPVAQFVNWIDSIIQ
Protocol: Peripheral venous blood was collected from six healthy donors after informed consent (votum 018-09 of the local ethics committee), and differential blood counts were performed. Neutrophil granulocytes were isolated using the MACSxpress neutrophil isolation kit (Miltenyi Biotec, Bergisch Gladbach, Germany) following the manufacturer’s instructions. Residual erythrocytes were eliminated by hypotonic lysis. Neutrophils were resuspended in PBS with glucose (1 g/L) at a density of 50–100 cells/µL. The purity of the final cell population was analyzed by staining a smear using Pappenheim’s method and counting ≥200 cells using a light microscope.
(§2) The enzymatic activity of HNE was measured using a fluorescence-based assay in 96-well black bottom plates (Corning®, 003916, New York, NY, USA). HNE (0.5 nM) or cell lysates (20 µL, ~100 PMN/µL, ~1000 U937/µL, ~5000 HL-60/µL or ~1000 HMC-1/µL) were diluted in assay buffer (200 mM TRIS HCl, 500 mM NaCl, 0.05% Tween-20, pH 8.0). […] AMC (7-Amino-4-methylcoumarin) standard curves were generated by measuring serial dilutions of the fluorophore AMC (1 µM–0 µM) in assay buffer on the same plate and used to calculate nM AMC generation from fluorescence measurements.
(§3) U937 cells were plated in sterile 96-U-well plates (92697, TPP, Trasadingen, Switzerland) at a density of 100 cells/µL in a cell culture medium (180 µL per well). Increasing concentrations of inhibitors and solvent controls were diluted in a culture medium and added (20 µL/well) to the 96-well plate 26 h, 6 h, 3 h, and 0 h before harvesting and lysing the cells (see below). Plates were kept at 37 °C, 5% CO2, and 95% humidity throughout the incubation period. […] Similarly, freshly isolated PMN were plated at 50–100 cells/µL in PBS (1 g/L glucose) and incubated for 1 h with inhibitors or controls.
(§4) For cell lysis, cells were pelleted in the microtiter plates by centrifugation (400× g, 10 min, 4 °C) and washed three times in PBS (4 °C). Washed cells were then lysed by adding lysis buffer (PBS, 1 M NaCl, 0.1% Tween-20, pH 7.4) and freeze–thawing on dry ice. Finally, lysates were centrifuged (2100× g) to remove cell debris. Enzymatic activity of HNE was determined as described above, and residual activity present after incubation with inhibitors expressed as % of matched solvent controls.

[3] = biological target: T3, HNE in U937 lysates (Homo sapiens, UniProt P08246); experiment: Inhibition of HNE activity in U937 lysates; format: biochemical; conditions: U937 lysate 1000 cells/µL, incubated 1 h 37 °C, Morrison fit, mean ± SD
T3 construct: the myeloid cell line U937, which can differentiate into neutrophils [25] and expresses HNE; host or cells: U937 (histiocytic lymphoma), undifferentiated
T3 sequence (P08246 30-247 limits assumed): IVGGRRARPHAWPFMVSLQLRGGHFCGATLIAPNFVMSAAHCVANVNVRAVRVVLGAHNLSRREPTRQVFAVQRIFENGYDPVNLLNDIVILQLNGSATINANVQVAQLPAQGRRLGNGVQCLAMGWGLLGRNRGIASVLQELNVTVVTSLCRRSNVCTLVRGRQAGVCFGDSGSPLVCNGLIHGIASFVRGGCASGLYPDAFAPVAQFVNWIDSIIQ
Protocol: For the quantification and characterization of HNE-like activity in cell lysates, the density of the sample cell suspension was first quantified using a CASY-1 cell counter.
(§1) To determine the inhibition constants of reversible inhibitors with isolated HNE and HNE in cell lysates, HNE (0.5 nM) and U937 lysates (1000 cells/µL) were incubated with serial dilutions of the compounds in assay buffer at 37 °C for ≥ 1 h. Subsequently, residual HNE activity was measured as described above and compared to the activity of uninhibited HNE. […] The inhibition curves generated were fitted to Morrisons’s equation to obtain the dissociation equilibrium constant Ki with pro-Fit (Quantum Soft, Uetikon am See, Switzerland) using a Levenberg–Marquardt algorithm.

[4] = biological target: T4, isolated HNE (human neutrophil elastase) (Homo sapiens, UniProt P08246); experiment: Inhibition of isolated HNE, steady-state kinetics (MeOSuc-AAPV-AMC); format: biochemical; conditions: for Ki: HNE 0.5 nM, incubated 1 h 37 °C, Morrison fit, mean ± SD, compound 5b in phosphate buffer pH 7.4; for inhibition of HNE (in words): negative controls
T4 construct: immediately processed to its active form in the trans-Golgi before being targeted to azurophil granules; purchased Merck (Darmstadt, Germany) 324681
T4 sequence (P08246 30-267): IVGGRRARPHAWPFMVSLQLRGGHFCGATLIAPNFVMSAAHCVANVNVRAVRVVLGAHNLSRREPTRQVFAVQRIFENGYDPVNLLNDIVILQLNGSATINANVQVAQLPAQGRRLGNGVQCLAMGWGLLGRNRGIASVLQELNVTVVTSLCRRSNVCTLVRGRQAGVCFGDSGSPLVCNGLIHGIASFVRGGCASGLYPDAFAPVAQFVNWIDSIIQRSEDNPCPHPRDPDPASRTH
Protocol: as §1

[5] = biological target: T5, HNE in U937 cells (Homo sapiens, UniProt P08246); experiment: Intracellular HNE inhibition in cultured U937 cells (residual activity in lysates); format: cell-based; conditions: for time course of HNE inhibition in U937 cells (in words): 0-26 h culture
T5 construct: the myeloid cell line U937, which can differentiate into neutrophils [25] and expresses HNE; host or cells: U937 (histiocytic lymphoma), undifferentiated
T5 sequence (P08246 30-247 limits assumed): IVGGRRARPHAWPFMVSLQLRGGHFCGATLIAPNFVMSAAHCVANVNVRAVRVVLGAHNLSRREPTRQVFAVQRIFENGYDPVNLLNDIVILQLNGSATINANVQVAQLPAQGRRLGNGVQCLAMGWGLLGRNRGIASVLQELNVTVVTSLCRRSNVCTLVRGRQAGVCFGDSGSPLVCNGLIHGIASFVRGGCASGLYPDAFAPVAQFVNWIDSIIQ
Protocol: as §2, §3, §4

[6] = biological target: T1, isolated HNE; set-up: method as in PMID 21791628; conditions: cited from earlier work

Row | SMILES | Ki [3] [µM] | Ki [4] [µM] | inhibition of HNE (in words) [4] | potency in PMN compared with U937 cells (in words) [2] | time course of HNE inhibition in U937 cells (in words) [5] | also measured
1 | Cc1c(-c2ccnn2C)cc(C(=O)NCc2ccc(S(C)(=O)=O)cn2)c(=O)n1-c1cccc(C(F)(F)F)c1 [Alvelestat, alvelestat] | 0.011 | 0.009 | – | – | – | half-life of the complex with HNE (in words) [1]: seconds to a few minutes; effect on HNE in mature PMN (in words) ([2]; 1 h incubation): negligible effect; effect on HNE activity in the U937 cell culture model (in words) ([5]; 0-26 h, increasing concentrations, alvelestat and sivelestat up to more than 1000-fold above Ki): no detectable effect; also recorded: no measurable effect; also recorded: do not cause detectable intracellular inhibition; koff [6]: 0.057 s⁻¹; kon ([6]; too fast to be recorded with authors' setup): 7e+06 M⁻¹ s⁻¹
2 | CCC[C@@H](NC(=O)N1C(=O)C(CC)(CC)[C@@H]1Oc1ccc(C(=O)N2CCN(C)CC2)cc1)c1ccc2c(c1)OCO2 [DMP 777] | 0.00034 | 0.00025 | – | somewhat less potent | inhibit HNE in U937 cells increasingly over the 26 h observation period | koff ([1]; koff = Ki × kon, irreversible inhibitors ≈ zero): 0.00012 s⁻¹; kon ([1]; pre-steady-state kinetics, HNE 0.6 nM, 37 °C, mean ± SD): 4.9 ± 0.4 × 10^5 M^−1 s^−1
3 | CC(C)[C@@H]1C(=O)N(S(C)(=O)=O)[C@@H]2CCN(C(=O)/C=C/CN3CCCCC3)[C@H]21 [GW311616] | – | – | – | somewhat less potent | inhibit HNE in U937 cells increasingly over the 26 h observation period | –

Further lines, with some results ahead:

Row | Ki [3] [µM] | Ki [4] [µM] | inhibition of HNE (in words) [4] | potency in PMN compared with U937 cells (in words) [2] | SMILES | time course of HNE inhibition in U937 cells (in words) [5] | also measured
4 | > 1000 | > 1000 | no inhibition | – | N=C(N)c1ccccc1 [Benzamidine, benzamidine] | – | –
5 | – | > 10 | no inhibition | – | CN(C(=O)c1cc2ccccc2cc1C(=O)C(c1cccc2ccccc12)P(=O)(O)O)C1CCN(C(=O)c2ccccc2)CC1 (centres unmarked) [Cathepsin G Inhibitor] | – | –
